Where a SMILES comes first, the peptide text is derived from it. Where no end group is shown, it is not given here. [ ]: non-standard residue; d: D form. The star is where a group is joined. Tyr(3-OMe) = COc1cc(C[C@H](N)C(=O)O)ccc1O; Desaminotyrosyl = O=C(CCc1ccc(O)cc1)*; Nle = CCCC[C@H](N)C(=O)O; Ac5c = NC1(C(=O)O)CCCC1; Aib = CC(C)(N)C(=O)O Some results are limits rather than exact numbers.

The values below come from patent US8999940B2 (Ipsen Pharma S.A.S., priority 2008, dated 2015).

Data set [1] concerns the target T1, human recombinant GIP receptor (Homo sapiens, UniProt P48546).
T1 construct: expressed in transfected cells; host or cells: CHO-K1 clonal cells (membrane preparation)
T1 sequence (P48546 22-466): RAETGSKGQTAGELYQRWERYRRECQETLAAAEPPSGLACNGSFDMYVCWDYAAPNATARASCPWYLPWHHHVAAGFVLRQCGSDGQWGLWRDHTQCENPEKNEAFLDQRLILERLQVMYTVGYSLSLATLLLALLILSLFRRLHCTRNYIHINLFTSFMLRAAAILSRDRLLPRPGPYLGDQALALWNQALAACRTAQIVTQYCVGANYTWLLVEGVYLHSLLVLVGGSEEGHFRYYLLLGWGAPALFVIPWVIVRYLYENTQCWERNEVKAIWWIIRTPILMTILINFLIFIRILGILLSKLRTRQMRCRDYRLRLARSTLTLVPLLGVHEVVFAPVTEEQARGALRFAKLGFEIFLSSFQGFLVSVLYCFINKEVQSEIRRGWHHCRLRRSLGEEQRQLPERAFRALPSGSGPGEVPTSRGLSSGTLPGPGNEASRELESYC
The data set can be described thus: In vitro hGIP receptor binding assay. As to the method: A. In Vitro hGIP Receptor Binding Assay […] The incubations were terminated by rapid filtration through GF/C filters (pre-soaked in 0.5% polyethylenimine) using a Brandel filtration manifold. Each tube and filter were then washed three times with 5-ml aliquots of ice-cold buffer.

Data set [2] in a line: Rat plasma half-life assay. The class given is in vitro ADME. The settings on record: 37° C., LC-MS, read-out: Rat Plasma T½ (converted). As to the method:
(§1) B. Human and Rat Plasma Half-Life Assay
(§2) 50 μl was removed at various times, like at 0, 1, 2, 3, 4, 8, 24, 32, 48, 56, 72 hours, mixed with 5 μl formic acid and 150 μL acetonitrile in a microcentrifuge tube, vertexed, and centrifuged for 10 minutes at 10 K rpm. The supernatant was transferred to an injection vial and analyzed by LC-MS. The LC-MS system consisted of an API4000 mass spectrometer with an ESI probe. Positive ion mode and full scan detection were used. HPLC separation was carried out on a Luna 3μ. C8 (2), 2×30 mm column with a gradient from 90% A to 90% B in 10 minutes at a flow rate of 0.3 ml/min. Buffer A was 1% formic acid in water and buffer B was 1% formic acid acetonitrile.

A short description of data set [3]: Human plasma half-life assay. Format: in vitro ADME. The settings on record: 37° C., LC-MS, read-out: Human Plasma T½ (converted). As to the method: as §1, §2

Regarding `CC[C@H](C)[C@H](NC(=O)[C@H](CCCCN)NC(=O)[C@H](CC(=O)O)NC(=O)[C@H](CCSC)NC(=O)[C@H](C)NC(=O)[C@@H](NC(=O)C1(NC(=O)[C@H](Cc2ccc(O)cc2)NC(=O)[C@H](CC(=O)O)NC(=O)[C@H](CO)NC(=O)[C@@H](NC(=O)[C@H](Cc2ccccc2)NC(=O)[C@@H](NC(=O)CNC(=O)[C@H](CCC(=O)O)NC(=O)C(C)(C)NC(=O)[C@@H](N)Cc2ccc(O)c([N+](=O)[O-])c2)[C@@H](C)O)[C@@H](C)CC)CCCC1)[C@@H](C)CC)C(=O)N[C@@H](Cc1c[nH]cn1)C(=O)N[C@@H](CCC(N)=O)C(=O)N[C@@H](CCC(N)=O)C(=O)N[C@@H](CC(=O)O)C(=O)N[C@@H](Cc1ccccc1)C(=O)N[C@H](C(=O)N[C@@H](CC(N)=O)C(=O)N[C@@H](Cc1c[nH]c2ccccc12)C(=O)N[C@@H](CC(C)C)C(=O)N[C@@H](CC(C)C)C(=O)N[C@@H](C)C(=O)N[C@@H](CCC(N)=O)C(=O)N[C@@H](CCCCN)C(=O)NCC(=O)N[C@@H](CCCCN)C(=O)N[C@@H](CCCCN)C(=O)N[C@@H](CC(N)=O)C(=O)N[C@@H](CC(=O)O)C(=O)N[C@@H](Cc1c[nH]c2ccccc12)C(=O)N[C@@H](CCCCN)C(=O)N[C@@H](Cc1c[nH]cn1)C(=O)N[C@@H](CC(N)=O)C(=O)N[C@H](C(=O)NC1(C(=O)N[C@@H](CCC(N)=O)C(=O)O)CCCC1)[C@@H](C)CC)C(C)C` [Example 36, (3NO2-Tyr^1, Aib^2, A5c^11, 41)hGIP(1-42)-OH], the inhibitory constant (Ki) in data set [1] came to 11.2 nM. Moreover, the figures for the half-life at 0.1 mg/ml in data set [2] and in data set [3] were 11.7 h and more than 72 h, respectively.

With `CCCC[C@H](NC(=O)[C@H](C)NC(=O)[C@@H](NC(=O)C1(NC(=O)[C@H](Cc2ccc(O)cc2)NC(=O)[C@H](CC(=O)O)NC(=O)[C@H](CO)NC(=O)[C@@H](NC(=O)[C@H](Cc2ccccc2)NC(=O)[C@@H](NC(=O)CNC(=O)[C@H](CCC(=O)O)NC(=O)C(C)(C)NC(=O)[C@@H](N)Cc2ccc(CN)cc2)[C@@H](C)O)[C@@H](C)CC)CCCC1)[C@@H](C)CC)C(=O)N[C@@H](CC(=O)O)C(=O)N[C@@H](CCCCN)C(=O)N[C@H](C(=O)N[C@@H](Cc1c[nH]cn1)C(=O)N[C@@H](CCC(N)=O)C(=O)N[C@@H](CCC(N)=O)C(=O)N[C@@H](CC(=O)O)C(=O)N[C@@H](Cc1ccccc1)C(=O)N[C@H](C(=O)N[C@@H](CC(N)=O)C(=O)N[C@@H](Cc1c[nH]c2ccccc12)C(=O)N[C@@H](CC(C)C)C(=O)N[C@@H](CC(C)C)C(=O)N[C@@H](C)C(=O)N[C@@H](CCC(N)=O)C(=O)N[C@@H](CCCCN)C(=O)NCC(=O)N[C@@H](CCCCN)C(=O)N[C@@H](CCCCN)C(=O)N[C@@H](CC(N)=O)C(=O)N[C@@H](CC(=O)O)C(=O)N[C@@H](Cc1c[nH]c2ccccc12)C(=O)N[C@@H](CCCCN)C(=O)N[C@@H](Cc1c[nH]cn1)C(=O)N[C@@H](CC(N)=O)C(=O)N[C@H](C(=O)N[C@H](C(=O)N[C@@H](CCC(N)=O)C(=O)O)[C@@H](C)O)[C@@H](C)CC)C(C)C)[C@@H](C)CC` [Example 21, (4NH2CH2-Phe^1, Aib^2, A5c^11, Nle^14)hGIP(1-42)-OH], the Ki in data set [1] stood at 95 nM. In addition, the half-life at 0.1 mg/ml is 6 h in data set [2] and more than 74 h in data set [3].

For the molecule `CCCC[C@H](NC(=O)[C@H](C)NC(=O)[C@@H](NC(=O)C1(NC(=O)[C@H](Cc2ccc(O)cc2)NC(=O)[C@H](CC(=O)O)NC(=O)[C@H](CO)NC(=O)[C@@H](NC(=O)[C@H](Cc2ccccc2)NC(=O)[C@@H](NC(=O)CNC(=O)[C@H](CCC(=O)O)NC(=O)C(C)(C)NC(=O)[C@@H](N)Cc2cc(F)c(F)c(F)c2)[C@@H](C)O)[C@@H](C)CC)CCCC1)[C@@H](C)CC)C(=O)N[C@@H](CC(=O)O)C(=O)N[C@@H](CCCCN)C(=O)N[C@H](C(=O)N[C@@H](Cc1c[nH]cn1)C(=O)N[C@@H](CCC(N)=O)C(=O)N[C@@H](CCC(N)=O)C(=O)N[C@@H](CC(=O)O)C(=O)N[C@@H](Cc1ccccc1)C(=O)N[C@H](C(=O)N[C@@H](CC(N)=O)C(=O)N[C@@H](Cc1c[nH]c2ccccc12)C(=O)N[C@@H](CC(C)C)C(=O)N[C@@H](CC(C)C)C(=O)N[C@@H](C)C(=O)N[C@@H](CCC(N)=O)C(=O)N[C@@H](CCCCN)C(=O)NCC(=O)N[C@@H](CCCCN)C(=O)N[C@@H](CCCCN)C(=O)N[C@@H](CC(N)=O)C(=O)N[C@@H](CC(=O)O)C(=O)N[C@@H](Cc1c[nH]c2ccccc12)C(=O)N[C@@H](CCCCN)C(=O)N[C@@H](Cc1c[nH]cn1)C(=O)N[C@@H](CC(N)=O)C(=O)N[C@H](C(=O)N[C@H](C(=O)N[C@@H](CCC(N)=O)C(=O)O)[C@@H](C)O)[C@@H](C)CC)C(C)C)[C@@H](C)CC` [Example 22, (3,4,5F-Phe^1, Aib^2, A5c^11, Nle^14)hGIP(1-42)-OH], the inhibitory constant (Ki) in data set [1] worked out at 31.1 nM. Further, the half-life at 0.1 mg/ml in data set [2] is 69.3 h; in data set [3], more than 74 h.

As to `CCCC[C@H](NC(=O)[C@H](C)NC(=O)[C@@H](NC(=O)[C@H](CO)NC(=O)[C@H](Cc1ccc(O)cc1)NC(=O)[C@H](CC(=O)O)NC(=O)[C@H](CO)NC(=O)[C@@H](NC(=O)[C@H](Cc1ccccc1)NC(=O)[C@@H](NC(=O)CNC(=O)[C@@H]1CCCN1C(=O)C(C)(C)NC(=O)CCc1ccc(O)cc1)[C@@H](C)O)[C@@H](C)CC)[C@@H](C)CC)C(=O)N[C@@H](CC(=O)O)C(=O)N[C@@H](CCCCN)C(=O)N[C@H](C(=O)N[C@@H](Cc1c[nH]cn1)C(=O)N[C@@H](CCC(N)=O)C(=O)N[C@@H](CCC(N)=O)C(=O)N[C@@H](CC(=O)O)C(=O)N[C@@H](Cc1ccccc1)C(=O)N[C@H](C(=O)N[C@@H](CC(N)=O)C(=O)N[C@@H](Cc1c[nH]c2ccccc12)C(=O)N[C@@H](CC(C)C)C(=O)N[C@@H](CC(C)C)C(=O)N[C@@H](C)C(=O)N[C@@H](CCC(N)=O)C(=O)N[C@@H](CCCCN)C(N)=O)C(C)C)[C@@H](C)CC` [Example 9, (4Hppa^1, Aib^2, hPro^3, Nle^14)hGIP(1-30)-NH2] (Desaminotyrosyl-[Aib]PGTFISDYSIA[Nle]DKIHQQDFVNWLLAQK-NH2), the values for the half-life in data set [2] and in data set [3] were 14 h and 26.5 h, respectively.

Regarding `CC[C@H](C)[C@H](NC(=O)[C@H](CCCCN)NC(=O)[C@H](CC(=O)O)NC(=O)[C@H](CCSC)NC(=O)[C@H](C)NC(=O)[C@@H](NC(=O)C1(NC(=O)[C@H](Cc2ccc(O)cc2)NC(=O)[C@H](CC(=O)O)NC(=O)[C@H](CO)NC(=O)[C@@H](NC(=O)[C@H](Cc2ccccc2)NC(=O)[C@@H](NC(=O)CNC(=O)[C@H](CCC(=O)O)NC(=O)C(C)(C)NC(=O)[C@@H](N)Cc2ccc(OC)cc2)[C@@H](C)O)[C@@H](C)CC)CCCC1)[C@@H](C)CC)C(=O)N[C@@H](Cc1c[nH]cn1)C(=O)N[C@@H](CCC(N)=O)C(=O)N[C@@H](CCC(N)=O)C(=O)N[C@@H](CC(=O)O)C(=O)N[C@@H](Cc1ccccc1)C(=O)N[C@H](C(=O)N[C@@H](CC(N)=O)C(=O)N[C@@H](Cc1c[nH]c2ccccc12)C(=O)N[C@@H](CC(C)C)C(=O)N[C@@H](CC(C)C)C(=O)N[C@@H](C)C(=O)N[C@@H](CCC(N)=O)C(=O)N[C@@H](CCCCN)C(=O)NCC(=O)N[C@@H](CCCCN)C(=O)N[C@@H](CCCCN)C(=O)N[C@@H](CC(N)=O)C(=O)N[C@@H](CC(=O)O)C(=O)N[C@@H](Cc1c[nH]c2ccccc12)C(=O)N[C@@H](CCCCN)C(=O)N[C@@H](Cc1c[nH]cn1)C(=O)N[C@@H](CC(N)=O)C(=O)N[C@H](C(=O)NC1(C(=O)N[C@@H](CCC(N)=O)C(=O)O)CCCC1)[C@@H](C)CC)C(C)C` [Example 31, [Tyr(Me)^1, Aib^2, A5c^11, 41]hGIP(1-42)-OH], the Ki in data set [1] is 4.5 nM. Besides, the figures for the half-life at 0.1 mg/ml in data set [2] and in data set [3] were 9.7 h and 34.8 h, respectively.

Turning to “[Tyr(3-OMe)][Aib]EGTFISDY[Ac5c]IA[Ac5c]DKIHQQDFVNWLLAQKGKKNDWKHNI[Ac5c]QH-OH [Example 75, (3MeO-Tyr^1, Aib^2, A5c^11, 14, His^43)hGIP(1-43)-OH]”, the half-life in data set [2] was 18.6 h; in data set [3], more than 60 h.

What is called Ki is the dissociation constant of the complex between target and ligand, obtained from inhibition or displacement.
